Source: article PMC4389225, “Triaminopyrimidine is a fast-killing and long-acting antimalarial clinical candidate” (Nature Communications, 2015)
“And” between values parts separate entries of the source, which are not always exact repeats. Equal entries are not always repeated. Where two headings read alike, the source gives them in different places.

Key:
[1] = Observed blood CL, mouse
[2] = Blood-plasma ratio, human; assay type: in vitro ADME
Excerpt: (§1) Supplementary Note 5: Prediction of human clearance for compound 12 by IVIVE.
(§2) Human clearance (CL) was predicted by in vitro-in vivo extrapolation (IVIVE) from the in vitro Clint in human hepatocytes6. In vitro Clint was scaled to in vivo Clint as follows:
(§3) Clint in vivo = Clint in vitro * scaling factors * fublood/fuinc
(§4) The liver weights used for scaling were 40, 32 and 24 g/kg body weight in rat, dog and human respectively. Hepatocellularity used for scaling was 163, 169 and 120 (X 106) cells/g liver in rat, dog and human respectively. Free fraction in blood was calculated as fuplasma /Blood:Plasma (BP) ratio. BP ratio and free fraction in the hepatocyte incubation mix, fuinc, were measured in vitro. Slope and intercept from the linear regression analysis of IVIVC for a large number of AstraZeneca compounds was applied for final correction in the scaled in vivo Clint. A well stirred model was used for CL prediction.
(§5) Where Qh is the liver blood flow. The values of Qh in rat, dog and human are 72, 55 and 20 mL.min-1kg-1 in rat, dog and human, respectively. In vitro parameters, observed in vivo CL and predicted CL are shown in supplementary Table 10. […]
(§6) (also on this page, place not known: in vivo in vivo CLintQ CLintQCL Predicted predicted predicted h h + ×=)
(§7) (1 picture or pasted object on this page, not shown here)

[3] = Plasma protein binding, dog
[4] = Plasma protein binding, mouse
[5] = Hepatocyte Clint, human; assay type: in vitro ADME; details: hepatocytes
Excerpt: as §1, §2, §3, §4, §5, §6, §7

[6] = test system: Cpd 4 Unpublished Target; assay: [3H]-hypoxanthine incorporation assay, Cpd 4 Unpublished Target resistant; assay type: cell-based; details: Plasmodium falciparum
Description: (§8) Supplementary Table 3: Compound 9 and 12 retain their activity against Pf strains harbouring mutations to novel antimalarial agents in clinical development. Compound 9 and 12 were tested for their antiplasmodial activity against a panel of Pf strains known to harbour mutations conferring resistance to novel agents under clinical development. Parasite growth inhibition is measured using the [3H]-hypoxanthine incorporation assay. IC50s are established for each strain (n ≥2) and compared to the IC50 of Dd2 (standard pan-resistant […]

[7] = PK in the blood of infected Pf/SCID mice; assay type: in vivo, mouse
Description: Peripheral blood samples (25 μl) were taken at different times (0.25, 0.5, 1, 2, 4, 6, 8 and 23 h), mixed with 25 μl of H2O Mili-Q and immediately frozen on dry ice. The frozen samples were stored at −80 °C until analysis. Vehicle-treated mice experienced the same blood-sampling regimen. Blood samples were processed by liquid–liquid extraction by mixing 10 μl diluted blood with 180 μl AcN:MeOH (80:20; v-v) mixture. Quantitative analysis by Liquid chromatography-tandem mass spectrometry (LC-MS/MS) was performed using UPLC (Waters) and Sciex API4000. The lower limit of quantification in this assay was 0.005 μg ml^−1.

[8] = parameters: species or system human
Excerpt: as §1, §2, §3, §4
Where Qh is the liver blood flow. The values of Qh in rat, dog and human are 72, 55 and 20 mL.min-1kg-1 in rat, dog and human, respectively. In vitro parameters, observed in vivo CL and predicted CL are shown in supplementary Table 10.
Prediction of human CL and Vss by rat and dog allometry. Human CL for 12 was also predicted by simple, two species (rat and dog) allometry based on CL and Vss estimates from rat and dog IVPK. The coefficient and exponent from allometry were used for human CL prediction by the Fu corrected intercept method (FCIM)7. CL was predicted as […]
as §6, §7
Where ‘a’ is the coefficient obtained from simple allometric scaling and Rfup is the ratio of free fractions in plasma, fup in rat to fup in human. Vss in human was predicted by simple, rat and dog allometry (supplementary Table 11).
Prediction of human PK profile. The predicted human CL and Vss estimates could be used for predicting human PK with a one compartment distribution. However, rat and dog IVPK profiles indicated a two compartment distribution. Parameters for the two compartment distribution in human were predicted by Wajima transformation8 of rat and dog IVPK […]
CLd, Vt and Vc estimates, assuming similar Ka (0.3/h) and F (0.7) as observed in rats (supplementary Fig. 12 ).
Predicted human PK parameters are shown in supplementary Table 12. Human CL estimates predicted by the FCIM method and IVIVE (3.8 ml/min/kg) were identical. The […]
Human efficacy was predicted after treatment of 70 kg adult with a single 260 mg dose, assuming 2% parasitemia at the onset of treatment and assuming one compartment distribution of 12 in humans (supplementary Fig. 13). Similar efficacy was predicted if 12 was distributed in two compartments.

[9] = Caco2 permeability; details: human, Caco-2
[10] = test system: Dd2; assay: SYBR green growth assay, Dd2 (parental); assay type: cell-based, P. falciparum; details: Plasmodium falciparum, DD2, Dd2 parental; mean ± SD, Supplementary Table 13
Description: To eliminate overlapping mode of action with known targets, cross-resistance testing of representative TAPs against drug-resistant lines with well-characterized mutations in Pf dihydroorotate dehydrogenase, Pf heat-shock protein 90, Pf chloroquine resistance transporter[25] or Pf cytochrome b reduction site[26] was performed. […] Assays were carried out in 384-well format with three technical replicates within an assay day and biological replicates carried out on three different assay days to assign a final EC50.
A representative TAP (compound 6) was tested for its activity against a panel of P. falciparum strains known to harbour mutations conferring resistance to antimalarial agents under development. Artesunate and amodiaquine were included as additional control […]
Values are the means ± standard deviation derived from three independent assays performed

[11] = test system: PfATP4 Cpd 2; assay: [3H]-hypoxanthine incorporation assay, PfATP4 Cpd 2 resistant; assay type: cell-based; details: Plasmodium falciparum
Description: as §8

[12] = 260 mg / 70 kg, two compartment

Cc1nc(Nc2ncc(N3CCN(C)[C@H](C)C3)c(Nc3cc(C)n(C)n3)n2)cc(C2CC2)c1F [compound 12, (R)-N2-(4-cyclopropyl-5-fluoro-6-methylpyridin-2-yl)-N4-(1,5-dimethyl-1H-pyrazol-3-yl)-5-(3,4-dimethylpiperazin-1-yl)pyrimidine-2,4-diamine]
Observed blood CL ([1]; Mouse): 32-35 % LBF
clearance ([1]; mouse, blood): 48 to 53 mL/min/kg
B:P ratio [2]: 1.3
Plasma protein binding (% free) ([3]; Dog): 3.8 % free
fraction unbound ([3]; dog, plasma): 0.038
fraction unbound ([4]; Plasma protein binding (% free)): 0.0055
fraction unbound ([4]; Plasma protein binding, Plasma fu, fraction unbound): 0.005
hepatocyte CLint [5]: 3.1 µL/min/1e6 cells
IC50 [6]: 8.2 nM
CL/F ([7]; SCID, mouse, whole blood, oral, parent, Fixed): 650 mL/min/kg
Blood Cmin (minimum parasiticidal concentration, MPC) ([7]; at 40 mg kg^−1): 40 nM
Ka ([7]; parent, Fixed): 1 h⁻¹
Ke0 ([7]; parent, Fixed): 0.06 h⁻¹
Vc/F ([7]; parent, Fixed): 462 L/kg
Predicted human CL [8, 12]: 4.33 mL/min/kg
Predicted human CLd [8, 12]: 20 mL/min/kg
Predicted human Vc [8, 12]: 4.0 L/kg
Predicted human Vt [8, 12]: 7.3 L/kg
Human CL predicted by the FCIM method and IVIVE ([8]; Human): 3.8 mL/min/kg
Predicted blood CL ([8]; Human): 24 % LBF
Predicted blood CL ([8]; Human, IVIVE from hepatocyte Clint): 3.8 mL/min/kg
Predicted human F ([8]; assumed similar to rats): 0.7
Predicted human Ka ([8]; assumed similar to rats): 0.3 h⁻¹
B—predicted mean human plasma Cmax free ([8]; human, 260 mg dose): 8.7 nM
predicted half-life in human ([8]; human, predicted): ~ 36 h and 36 h
Allometry parameter B (exponent), CL ([8]; rat and dog allometry): 1.08
Allometry parameter a (coefficient), CL ([8]; rat and dog allometry): 0.6
Papp A→B [9]: 25 ×10⁻⁶ cm/s
IC50 [10]: 16.1 ± 1 nM
IC50 [11]: 8.1 nM
